Data as given in ChEMBL document CHEMBL5325488, “Discovery of SMD-3040 as a Potent and Selective SMARCA2 PROTAC Degrader with Strong in vivo Antitumor Activity” (J Med Chem, 2023).

Experiments:
[1] = target: SWI/SNF-related matrix-associated actin-dependent regulator of chromatin subfamily A member 2 (Homo sapiens, UniProt P51531); assay: Binding affinity to SMARCA2 (unknown origin)
[2] = target: SWI/SNF-related matrix-associated actin-dependent regulator of chromatin subfamily A member 4 (Homo sapiens, UniProt P51532); assay: Binding affinity to SMARCA4 (unknown origin)
[3] = target: T1, von Hippel-Lindau disease tumor suppressor/SWI/SNF-related matrix-associated actin-dependent regulator of chromatin subfamily A member 2 (Homo sapiens, UniProt P51531+P40337); assay: PROTAC activity at VHL/C-terminal HiBiT fused SMARCA2 in human HeLa cells assessed as induction of SMARCA2 degradation incubated for 24 hrs by Nano-Glo HiBiT analysis; format: cell-based
Target sequence in this assay (P51531 whole entry, the tested form may be a part): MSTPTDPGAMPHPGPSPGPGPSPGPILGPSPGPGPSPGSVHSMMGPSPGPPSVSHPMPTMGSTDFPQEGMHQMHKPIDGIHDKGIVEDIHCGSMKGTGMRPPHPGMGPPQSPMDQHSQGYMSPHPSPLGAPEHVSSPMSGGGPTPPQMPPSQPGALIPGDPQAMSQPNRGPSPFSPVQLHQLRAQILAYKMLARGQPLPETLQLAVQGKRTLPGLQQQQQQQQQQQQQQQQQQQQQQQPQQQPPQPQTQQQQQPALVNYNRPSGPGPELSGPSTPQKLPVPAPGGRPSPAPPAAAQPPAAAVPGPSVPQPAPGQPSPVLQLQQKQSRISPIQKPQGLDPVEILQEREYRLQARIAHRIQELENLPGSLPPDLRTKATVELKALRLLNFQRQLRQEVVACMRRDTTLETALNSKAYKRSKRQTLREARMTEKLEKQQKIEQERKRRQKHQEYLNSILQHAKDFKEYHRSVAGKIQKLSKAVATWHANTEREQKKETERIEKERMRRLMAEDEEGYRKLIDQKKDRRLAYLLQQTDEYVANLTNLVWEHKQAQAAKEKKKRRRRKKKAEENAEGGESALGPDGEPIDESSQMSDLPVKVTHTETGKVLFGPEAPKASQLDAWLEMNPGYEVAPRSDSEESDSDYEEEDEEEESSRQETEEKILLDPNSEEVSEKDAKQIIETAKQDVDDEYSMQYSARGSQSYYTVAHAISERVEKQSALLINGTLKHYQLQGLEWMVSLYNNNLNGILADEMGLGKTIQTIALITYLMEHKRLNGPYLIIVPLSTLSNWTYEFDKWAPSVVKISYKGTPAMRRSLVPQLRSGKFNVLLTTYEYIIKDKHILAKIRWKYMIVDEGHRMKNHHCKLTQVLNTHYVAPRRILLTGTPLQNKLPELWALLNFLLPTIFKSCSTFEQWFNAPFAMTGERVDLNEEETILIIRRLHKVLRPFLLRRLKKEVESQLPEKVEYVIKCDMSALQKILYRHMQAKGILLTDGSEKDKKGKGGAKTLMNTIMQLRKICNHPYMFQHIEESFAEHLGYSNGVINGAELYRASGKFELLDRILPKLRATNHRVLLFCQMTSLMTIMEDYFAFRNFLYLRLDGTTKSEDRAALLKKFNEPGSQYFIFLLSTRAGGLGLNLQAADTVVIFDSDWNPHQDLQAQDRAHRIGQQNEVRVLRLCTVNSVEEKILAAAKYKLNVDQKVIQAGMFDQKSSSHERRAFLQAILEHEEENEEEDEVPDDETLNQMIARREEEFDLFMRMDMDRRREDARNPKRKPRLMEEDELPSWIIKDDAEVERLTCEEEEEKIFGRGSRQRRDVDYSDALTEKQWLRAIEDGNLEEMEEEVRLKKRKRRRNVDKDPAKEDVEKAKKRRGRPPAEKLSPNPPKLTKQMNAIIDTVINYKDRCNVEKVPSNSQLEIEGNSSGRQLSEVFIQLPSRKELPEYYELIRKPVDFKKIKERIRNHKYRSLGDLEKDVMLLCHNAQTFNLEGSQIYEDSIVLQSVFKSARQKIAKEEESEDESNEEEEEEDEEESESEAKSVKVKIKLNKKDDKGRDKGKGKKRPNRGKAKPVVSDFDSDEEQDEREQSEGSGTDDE
Target sequence in this assay (P40337 whole entry, the tested form may be a part): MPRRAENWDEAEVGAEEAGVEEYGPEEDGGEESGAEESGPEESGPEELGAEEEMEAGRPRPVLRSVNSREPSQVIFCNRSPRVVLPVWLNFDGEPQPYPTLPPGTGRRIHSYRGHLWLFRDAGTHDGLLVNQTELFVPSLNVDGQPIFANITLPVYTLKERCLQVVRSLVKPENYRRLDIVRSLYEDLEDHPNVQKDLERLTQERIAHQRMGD

NCI-H838 [4] = assay: Antiproliferative activity against SMARCA4-deficient human NCI-H838 cells assessed as cell growth inhibition measured after 7 days by WST-8 assay; format: functional; conditions: NCI-H838, 168 h, time 7 day
[5] = target: T1, von Hippel-Lindau disease tumor suppressor/SWI/SNF-related matrix-associated actin-dependent regulator of chromatin subfamily A member 2; assay: PROTAC activity at VHL/SMARCA2 in human SW1573 cells assessed as induction of SMARCA2 degradation incubated for 20 hrs by Western blotting analysis; format: cell-based
Target sequence in this assay (P51531 whole entry, the tested form may be a part): as the sequence (P51531 whole entry, the tested form may be a part) above
Target sequence in this assay (P40337 whole entry, the tested form may be a part): as the sequence (P40337 whole entry, the tested form may be a part) above

A549 [6] = assay: Antiproliferative activity against SMARCA4-deficient human A549 cells assessed as cell growth inhibition by measuring maximal efficacy measured after 7 days by WST-8 assay relative to control; format: functional; conditions: time 7 day
SK-MEL-5 [7] = assay: Antiproliferative activity against SMARCA4-deficient human SK-MEL-5 cells assessed as cell growth inhibition measured after 7 days by WST-8 assay; format: functional; conditions: SK-MEL-5, 168 h, time 7 day
NCI-H647 [8] = assay: Antiproliferative activity against human NCI-H647 cells expressing wild-type SMARCA2 assessed as cell growth inhibition by measuring maximal efficacy measured after 7 days by WST-8 assay relative to control; format: functional; conditions: time 7 day
NCI-H1792 [9] = assay: Antiproliferative activity against human NCI-H1792 cells expressing wild-type SMARCA2 assessed as cell growth inhibition measured after 7 days by WST-8 assay; format: functional; conditions: NCI-H1792, 168 h, time 7 day
[10] = target: T1, von Hippel-Lindau disease tumor suppressor/SWI/SNF-related matrix-associated actin-dependent regulator of chromatin subfamily A member 2; assay: PROTAC activity at VHL/C-terminal HiBiT fused SMARCA2 in human HeLa cells assessed as induction of SMARCA2 degradation by measuring maximal efficacy incubated for 24 hrs by Nano-Glo HiBiT analysis relative to control; format: cell-based
NCI-H1944 [11] = assay: Antiproliferative activity against SMARCA4-deficient human NCI-H1944 cells assessed as cell growth inhibition measured after 7 days by WST-8 assay; format: functional; conditions: NCI-H1944, 168 h, time 7 day
[12] = Antiproliferative activity against SMARCA4-deficient human NCI-H1568 cells assessed as cell growth inhibition by measuring maximal efficacy measured after 7 days by WST-8 assay relative to control; format: functional; conditions: time 7 day
NCI-H1299 [13] = assay: Antiproliferative activity against SMARCA4-deficient human NCI-H1299 cells assessed as cell growth inhibition measured after 7 days by WST-8 assay; format: functional; conditions: NCI-H1299, 168 h, time 7 day
A549 [14] = assay: Antiproliferative activity against SMARCA4-deficient human A549 cells assessed as cell growth inhibition measured after 7 days by WST-8 assay; format: functional; conditions: A549, 168 h, time 7 day
NCI-H647 [15] = assay: Antiproliferative activity against human NCI-H647 cells expressing wild-type SMARCA2 assessed as cell growth inhibition measured after 7 days by WST-8 assay; format: functional; conditions: NCI-H647, 168 h, time 7 day
NCI-H838 [16] = assay: Antiproliferative activity against SMARCA4-deficient human NCI-H838 cells assessed as cell growth inhibition by measuring maximal efficacy measured after 7 days by WST-8 assay relative to control; format: functional; conditions: time 7 day
[17] = target: T1, von Hippel-Lindau disease tumor suppressor/SWI/SNF-related matrix-associated actin-dependent regulator of chromatin subfamily A member 2; assay: PROTAC activity at VHL/C-terminal HiBiT fused SMARCA2 in human HeLa cells assessed as induction of SMARCA2 degradation at 0.000001 to 1 uM by Nano-Glo HiBiT analysis; format: cell-based; conditions: dose lower 1e-06 µM, dose upper 1.0 µM, time 6-48 hrs, TDE = time-dependent effect
SK-MEL-28 [18] = assay: Antiproliferative activity against human SK-MEL-28 cells expressing wild-type SMARCA2 assessed as cell growth inhibition by measuring maximal efficacy measured after 7 days by WST-8 assay relative to control; format: functional; conditions: time 7 day
NCI-H1793 [19] = assay: Antiproliferative activity against SMARCA4-deficient human NCI-H1793 cells assessed as cell growth inhibition measured after 7 days by WST-8 assay; format: functional; conditions: NCI-H1793, 168 h, time 7 day
SK-MEL-28 [20] = assay: Antiproliferative activity against human SK-MEL-28 cells expressing wild-type SMARCA2 assessed as cell growth inhibition measured after 7 days by WST-8 assay; format: functional; conditions: SK-MEL-28, 168 h, time 7 day
[21] = target: T2, von Hippel-Lindau disease tumor suppressor/SWI/SNF-related matrix-associated actin-dependent regulator of chromatin subfamily A member 4 (Homo sapiens, UniProt P51532+P40337); assay: PROTAC activity at VHL/SMARCA4 in human SW1573 cells assessed as induction of […] degradation by measuring maximal efficacy incubated for 20 hrs by Western blotting analysis relative to control; format: cell-based
[22] = target: T1, von Hippel-Lindau disease tumor suppressor/SWI/SNF-related matrix-associated actin-dependent regulator of chromatin subfamily A member 2; assay: PROTAC activity at VHL/SMARCA2 in human SW1573 cells assessed as induction of SMARCA2 degradation by measuring maximal efficacy incubated for 20 hrs by Western blotting analysis relative to control; format: cell-based
[23] = target: T2, von Hippel-Lindau disease tumor suppressor/SWI/SNF-related matrix-associated actin-dependent regulator of chromatin subfamily A member 4; assay: PROTAC activity at VHL/C-terminal HiBiT fused SMARCA4 in human HeLa cells assessed as induction of SMARCA4 degradation incubated for 6 to 48 hrs by Nano-Glo HiBiT analysis; format: cell-based; conditions: dose lower 1e-05 µM, dose upper 1.0 µM, time 6-48 hrs
NCI-H1299 [24] = assay: Antiproliferative activity against SMARCA4-deficient human NCI-H1299 cells assessed as cell growth inhibition by measuring maximal efficacy measured after 7 days by WST-8 assay relative to control; format: functional; conditions: time 7 day
[25] = target: T1, von Hippel-Lindau disease tumor suppressor/SWI/SNF-related matrix-associated actin-dependent regulator of chromatin subfamily A member 2; assay: PROTAC activity at VHL/C-terminal HiBiT fused SMARCA2 in human HeLa cells assessed as induction of SMARCA2 degradation incubated for 6 to 48 hrs by Nano-Glo HiBiT analysis; format: cell-based; conditions: dose lower 1e-06 µM, dose upper 1.0 µM, time 6-48 hrs
SK-MEL-5 [26] = assay: Antiproliferative activity against SMARCA4-deficient human SK-MEL-5 cells assessed as cell growth inhibition by measuring maximal efficacy measured after 7 days by WST-8 assay relative to control; format: functional; conditions: time 7 day
NCI-H1975 [27] = assay: Antiproliferative activity against human NCI-H1975 cells expressing wild-type SMARCA2 assessed as cell growth inhibition by measuring maximal efficacy measured after 7 days by WST-8 assay relative to control; format: functional; conditions: time 7 day
[28] = target: T2, von Hippel-Lindau disease tumor suppressor/SWI/SNF-related matrix-associated actin-dependent regulator of chromatin subfamily A member 4; assay: PROTAC activity at VHL/C-terminal HiBiT fused SMARCA4 in human HeLa cells assessed as induction of SMARCA4 degradation at 0.00001 to 1 uM by Nano-Glo HiBiT analysis; format: cell-based; conditions: dose lower 1e-05 µM, dose upper 1.0 µM, time 6-48 hrs, TDE = time-dependent effect
[29] = target: T2, von Hippel-Lindau disease tumor suppressor/SWI/SNF-related matrix-associated actin-dependent regulator of chromatin subfamily A member 4; assay: PROTAC activity at VHL/C-terminal HiBiT fused SMARCA4 in human HeLa cells assessed as induction of SMARCA4 degradation by measuring maximal efficacy incubated for 24 hrs by Nano-Glo HiBiT analysis relative to control; format: cell-based
NCI-H1693 [30] = assay: Antiproliferative activity against SMARCA4-deficient human NCI-H1693 cells assessed as cell growth inhibition by measuring maximal efficacy measured after 7 days by WST-8 assay relative to control; format: functional; conditions: time 7 day
NCI-H1975 [31] = assay: Antiproliferative activity against human NCI-H1975 cells expressing wild-type SMARCA2 assessed as cell growth inhibition measured after 7 days by WST-8 assay; format: functional; conditions: NCI-H1975, 168 h, time 7 day
[32] = target: T2, von Hippel-Lindau disease tumor suppressor/SWI/SNF-related matrix-associated actin-dependent regulator of chromatin subfamily A member 4; assay: PROTAC activity at VHL/SMARCA4 in human SW1573 cells assessed as induction of […] degradation incubated for 20 hrs by Western blotting analysis; format: cell-based
Target sequence in this assay (P51532 whole entry): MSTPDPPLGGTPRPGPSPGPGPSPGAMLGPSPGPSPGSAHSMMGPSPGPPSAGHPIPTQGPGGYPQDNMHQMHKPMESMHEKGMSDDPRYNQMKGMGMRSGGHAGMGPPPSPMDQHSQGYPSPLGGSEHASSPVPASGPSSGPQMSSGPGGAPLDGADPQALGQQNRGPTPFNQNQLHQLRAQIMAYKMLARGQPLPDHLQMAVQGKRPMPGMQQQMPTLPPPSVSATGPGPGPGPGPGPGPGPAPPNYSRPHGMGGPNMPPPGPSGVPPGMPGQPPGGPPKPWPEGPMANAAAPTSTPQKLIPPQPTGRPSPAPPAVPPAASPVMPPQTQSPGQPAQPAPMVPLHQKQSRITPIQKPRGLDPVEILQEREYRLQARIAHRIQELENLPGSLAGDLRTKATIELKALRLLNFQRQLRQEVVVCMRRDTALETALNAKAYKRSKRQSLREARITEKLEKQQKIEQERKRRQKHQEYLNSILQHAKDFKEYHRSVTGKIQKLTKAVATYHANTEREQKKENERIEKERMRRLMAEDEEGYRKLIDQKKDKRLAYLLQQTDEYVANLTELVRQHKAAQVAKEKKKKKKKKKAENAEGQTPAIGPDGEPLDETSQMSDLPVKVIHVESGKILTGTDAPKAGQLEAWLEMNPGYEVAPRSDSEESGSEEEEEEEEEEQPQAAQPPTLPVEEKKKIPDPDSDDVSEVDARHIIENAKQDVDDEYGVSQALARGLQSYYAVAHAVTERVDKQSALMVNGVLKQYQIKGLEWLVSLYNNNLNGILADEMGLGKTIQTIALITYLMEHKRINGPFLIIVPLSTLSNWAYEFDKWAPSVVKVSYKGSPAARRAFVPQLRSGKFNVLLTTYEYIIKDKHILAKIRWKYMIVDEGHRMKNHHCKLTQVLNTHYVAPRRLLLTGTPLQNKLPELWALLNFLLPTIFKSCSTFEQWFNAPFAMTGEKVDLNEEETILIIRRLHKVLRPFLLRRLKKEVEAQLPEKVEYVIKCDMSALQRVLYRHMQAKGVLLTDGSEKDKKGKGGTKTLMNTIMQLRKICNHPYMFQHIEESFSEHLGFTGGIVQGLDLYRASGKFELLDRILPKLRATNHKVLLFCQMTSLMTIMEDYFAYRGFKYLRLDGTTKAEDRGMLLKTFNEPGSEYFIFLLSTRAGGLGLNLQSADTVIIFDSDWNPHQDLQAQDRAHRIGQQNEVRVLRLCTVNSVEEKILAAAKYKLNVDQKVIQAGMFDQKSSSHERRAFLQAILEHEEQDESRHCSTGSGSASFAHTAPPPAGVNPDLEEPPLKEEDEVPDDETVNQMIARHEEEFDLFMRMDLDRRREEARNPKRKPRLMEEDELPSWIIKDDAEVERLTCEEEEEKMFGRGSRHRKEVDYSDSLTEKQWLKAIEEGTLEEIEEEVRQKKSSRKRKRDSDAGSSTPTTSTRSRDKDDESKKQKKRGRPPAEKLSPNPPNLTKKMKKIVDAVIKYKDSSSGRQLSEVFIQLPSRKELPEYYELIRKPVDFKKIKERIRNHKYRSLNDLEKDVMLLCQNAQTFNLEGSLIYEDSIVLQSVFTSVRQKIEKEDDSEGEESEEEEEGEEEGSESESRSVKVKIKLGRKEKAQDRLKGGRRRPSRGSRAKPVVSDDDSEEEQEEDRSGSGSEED
Target sequence in this assay (P40337 whole entry): as the sequence (P40337 whole entry, the tested form may be a part) above

NCI-H1792 [33] = assay: Antiproliferative activity against human NCI-H1792 cells expressing wild-type SMARCA2 assessed as cell growth inhibition by measuring maximal efficacy measured after 7 days by WST-8 assay relative to control; format: functional; conditions: time 7 day
NCI-H1693 [34] = assay: Antiproliferative activity against SMARCA4-deficient human NCI-H1693 cells assessed as cell growth inhibition measured after 7 days by WST-8 assay; format: functional; conditions: NCI-H1693, 168 h, time 7 day
[35] = target: T2, von Hippel-Lindau disease tumor suppressor/SWI/SNF-related matrix-associated actin-dependent regulator of chromatin subfamily A member 4; assay: PROTAC activity at VHL/C-terminal HiBiT fused SMARCA4 in human HeLa cells assessed as induction of SMARCA4 degradation incubated for 24 hrs by Nano-Glo HiBiT analysis; format: cell-based
Target sequence in this assay (P51532 whole entry): as the sequence (P51532 whole entry) above
Target sequence in this assay (P40337 whole entry): as the sequence (P40337 whole entry, the tested form may be a part) above

[36] = Antiproliferative activity against SMARCA4-deficient human NCI-H1568 cells assessed as cell growth inhibition measured after 7 days by WST-8 assay; format: functional; conditions: NCI-H1568, 168 h, time 7 day
NCI-H1944 [37] = assay: Antiproliferative activity against SMARCA4-deficient human NCI-H1944 cells assessed as cell growth inhibition by measuring maximal efficacy measured after 7 days by WST-8 assay relative to control; format: functional; conditions: time 7 day
NCI-H1793 [38] = assay: Antiproliferative activity against SMARCA4-deficient human NCI-H1793 cells assessed as cell growth inhibition by measuring maximal efficacy measured after 7 days by WST-8 assay relative to control; format: functional; conditions: time 7 day

SMILES: Cn1cc(-c2cc(-c3ccccc3O)nnc2N)cn1
- Kd [1]: 10 nM
- Kd [2]: 12.8 nM

SMILES: Cc1ncsc1-c1ccc([C@H](C)NC(=O)[C@@H]2C[C@@H](O)CN2C(=O)[C@@H](c2cc(N3CCC(CN4CCC(O[C@H]5C[C@H](Oc6cccc(CN7C8CCC7CN(c7cc(-c9ccccc9O)nnc7N)C8)c6)C5)CC4)CC3)no2)C(C)C)cc1
- DC50 [3]: 0.12 nM
- GI50 (NCI-H838 [4]): 5 nM
- DC50 [5]: 0.039 nM
- Imax (A549 [6]): 52%
- GI50 (SK-MEL-5 [7]): 0.4 nM
- Imax (NCI-H647 [8]): 68%
- GI50 (NCI-H1792 [9]): 17 nM
- Emax [10]: 96%
- GI50 (NCI-H1944 [11]): 0.9 nM
- Imax [12]: 84%
- GI50 (NCI-H1299 [13]): 31 nM
- GI50 (A549 [14]): 3.3 nM
- GI50 (NCI-H647 [15]): 8.1 nM
- Imax (NCI-H838 [16]): 93%
- Activity [17]: Tde
- Imax (SK-MEL-28 [18]): 92%
- GI50 (NCI-H1793 [19]): 1 nM
- GI50 (SK-MEL-28 [20]): 8.1 nM
- Emax [21]: 92%
- Emax [22]: 96%
- Activity [23]: Dose-Dependent Effect
- Imax (NCI-H1299 [24]): 68%
- Activity [25]: Dose-Dependent Effect
- Imax (SK-MEL-5 [26]): 96%
- Imax (NCI-H1975 [27]): 50%
- Activity [28]: Tde
- Emax [29]: 98%
- Imax (NCI-H1693 [30]): 82%
- GI50 (NCI-H1975 [31]): 18 nM
- DC50 [32]: 1.1 nM
- Imax (NCI-H1792 [33]): 69%
- GI50 (NCI-H1693 [34]): 0.2 nM
- DC50 [35]: 2 nM
- GI50 [36]: 0.3 nM
- Imax (NCI-H1944 [37]): 87%
- Imax (NCI-H1793 [38]): 67%

SMILES: Cc1ncsc1-c1ccc([C@H](C)NC(=O)[C@@H]2C[C@@H](O)CN2C(=O)[C@@H](NC(=O)CCCCCCCCCn2cc(-c3cc(-c4ccccc4O)nnc3N)cn2)C(C)(C)C)cc1
- DC50 [3]: 2 nM
- GI50 (NCI-H838 [4]): 48 nM
- Imax (A549 [6]): 53%
- GI50 (SK-MEL-5 [7]): 2.5 nM
- Imax (NCI-H647 [8]): 77%
- GI50 (NCI-H1792 [9]): 60 nM
- Emax [10]: 93%
- GI50 (NCI-H1944 [11]): 4.8 nM
- Imax [12]: 82%
- GI50 (NCI-H1299 [13]): 100 nM
- GI50 (A549 [14]): 16 nM
- GI50 (NCI-H647 [15]): 76 nM
- Imax (NCI-H838 [16]): 91%
- Imax (SK-MEL-28 [18]): 90%
- GI50 (NCI-H1793 [19]): 5 nM
- GI50 (SK-MEL-28 [20]): 32 nM
- Imax (NCI-H1299 [24]): 81%
- Imax (SK-MEL-5 [26]): 95%
- Imax (NCI-H1975 [27]): 63%
- Emax [29]: 94%
- Imax (NCI-H1693 [30]): 81%
- GI50 (NCI-H1975 [31]): 38 nM
- Imax (NCI-H1792 [33]): 86%
- GI50 (NCI-H1693 [34]): 3.3 nM
- DC50 [35]: 8 nM
- GI50 [36]: 2.5 nM
- Imax (NCI-H1944 [37]): 87%
- Imax (NCI-H1793 [38]): 72%
